The target in data set [1] is T1, mouse GIP receptor (Mus musculus, UniProt Q0P543).
T1 construct: host or cells: CHO-K1 (cAMP Hunter CHO-K1 GIPR Gs cell line)
T1 sequence (Q0P543 19-460): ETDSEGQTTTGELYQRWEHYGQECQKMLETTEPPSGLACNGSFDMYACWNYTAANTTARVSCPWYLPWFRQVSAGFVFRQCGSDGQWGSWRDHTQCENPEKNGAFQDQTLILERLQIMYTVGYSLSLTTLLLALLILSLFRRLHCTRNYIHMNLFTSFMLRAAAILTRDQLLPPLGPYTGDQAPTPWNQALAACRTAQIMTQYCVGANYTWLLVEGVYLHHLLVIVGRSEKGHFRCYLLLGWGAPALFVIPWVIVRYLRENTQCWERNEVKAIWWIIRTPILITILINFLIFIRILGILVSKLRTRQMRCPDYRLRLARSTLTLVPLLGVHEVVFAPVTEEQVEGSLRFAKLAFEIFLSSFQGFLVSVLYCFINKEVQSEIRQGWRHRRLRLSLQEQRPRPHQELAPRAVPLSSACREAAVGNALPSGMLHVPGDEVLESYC
The data set can be described thus: Antagonist mode cAMP assay: inhibition of mouse GIP-induced cAMP production in CHO-K1 GIPR Gs cells. It is filed as cell-based. The following applies: curve fit value in plot, unit from legend, read-out: IC50 (printed on plot, Fig 1A/1B). How it is done:
Each peptide was tested for its ability to activate or inhibit the mouse GIP receptor using the cAMP Hunter™ CHO-K1 GIPR Gs cell line, in combination with the Hit Hunter® cAMP XP+ assay for determining cAMP, according to the manufacturer’s instructions (Eurofins DiscoverX Corporation).
Fig 1 Effects of acute GIPR antagonism on glucose homeostasis and insulin secretion. GIPA-1 and GIPA-2 are antagonists of mouse GIPR. […] IC50 values (μM) are indicated on the plots. (C-J) Acute effects of GIPA-1 and GIPA-2 on glucose homeostasis and insulin secretion in lean mice. Oral glucose tolerance tests (C and E), the corresponding areas under the curve (AUC) (D and F) and insulin responses (I) following subcutaneous injections of vehicle, 1,5 and 10 mg/kg GIPA-1 (C and D) or vehicle, 1,5 and 10 mg/kg GIPA-2 (E and F) before an oral glucose administration (1.5 g/kg). […] Statistical analysis was calculated using two-way ANOVA with Tukey’s post-hoc test (C, E, G and J) and one-way ANOVA with Dunnett’s post-hoc test (D, F, H, I). *: p< 0.05, **: p < 0.01, ***: p < 0.001, ****: p<0.0001 compared to vehicle.
We began by characterising the receptor-interaction properties of GIPA-1 and GIPA-2. Their agonist and antagonist potencies were measured via a cAMP production assay in CHO-K1 cells overexpressing the mouse GIPR.
(cAMP levels reflect the balance of adenylyl cyclase and phosphodiesterase activity.)

The conditions of data set [2]: cited from earlier work. From the text:
Given the strong in vitro pharmacological data and our interest in other metabolic parameters such as adiposity and insulin se ...

For data set [3], the system named is GIPR. Particulars: cited from earlier work. From the text:
Further controversy is evident with peptide based GIPR antagonists. […] In contrast, a palmitoyl variant of Pro^3GIP(3–30) ... || The GLP-1-agonist-GIPR-antagonist combination therapy reported in the present study was born from evidence of compromised gut-hormone function in obesity and diabetes as well as their postulated role in driving the beneficial metabolic effects following bariatric surgery. Indeed, GLP-1 secretion is enhanced after bariatric surgery which is thought to be a key component for the resolution of diabetes. In contrast, the controversial role of the GIP signalling pathway in dysmetabolic states has led to the pursuit of both agonist and antagonist approaches. There is a compelling ...

Data set [4] relates to GIP receptor. The following applies: humans, co-infusion with GIP(3-30)NH2; cited from earlier work. From the text: It has been shown that rat and the human GIP(3-30)NH2 are effective antagonists in vivo [48, 49], so we would expect the mouse GIP(3-30)NH2 to behave in a similar manner. […] In humans GIP-induced insulin secretion was reduced by 82% during co-infusion with GIP(3-30)NH2 [48].

The test system of data set [5] is lean male C57BL/6JRj mice. The data set can be described thus: Acute intraperitoneal glucose tolerance test (IPGTT) with GIPA-2 and mouse GIP in lean mice. The class given is in vivo. The following applies: n = 8; for plasma insulin: 0.1 mg/kg mouse GIP SC. As for the experimental part:
The effects of GIPA-2 and mouse GIP alone or in combination were studied in 10-week old lean male C57BL/6JRj mice. Animals were fasted 4 hours prior to an intraperitoneal glucose bolus (1.5 g/kg). Sixty minutes prior to glucose load animals received subcutaneous injection of 5mg/kg GIPA-2, while animals receiving mouse GIP (0.1 mg/kg) were dosed subcutaneously 15 minutes prior to glucose load. Blood glucose was measured just before the administration of GIPA-2 and at 0, 15, 30 60, 120, 180 and 240 min. Plasma insulin was measured at 0, 15 and 240 min.
Fig 1 Effects of acute GIPR antagonism on glucose homeostasis and insulin secretion. GIPA-1 and GIPA-2 are antagonists of mouse GIPR. […] IC50 values (μM) are indicated on the plots. (C-J) Acute effects of GIPA-1 and GIPA-2 on glucose homeostasis and insulin secretion in lean mice. Oral glucose tolerance tests (C and E), the corresponding areas under the curve (AUC) (D and F) and insulin responses (I) following subcutaneous injections of vehicle, 1,5 and 10 mg/kg GIPA-1 (C and D) or vehicle, 1,5 and 10 mg/kg GIPA-2 (E and F) before an oral glucose administration (1.5 g/kg). (G, H and J) Acute effect of GIPA-2 alone or in combination with mouse GIP on glucose homeostasis and insulin secretion in lean mice. Intraperitoneal glucose tolerance test cute IPGTT (G), the corresponding AUC (H) and insulin response (J) following subcutaneous injections of vehicle, 0.1 mg/kg mouse GIP, 5mg/kg GIPA-2, and combination of both. Group sizes are n = 8, and data are represented as mean ± SEM. Statistical analysis was calculated using two-way ANOVA with Tukey’s post-hoc test (C, E, G and J) and one-way ANOVA with Dunnett’s post-hoc test (D, F, H, I). *: p< 0.05, **: p < 0.01, ***: p < 0.001, ****: p<0.0001 compared to vehicle.

The test system of data set [6] is rats. Particulars: 25 nmol/kg b.w. for 3 weeks, cited from earlier work. The text has this:
Further controversy is evident with peptide based GIPR antagonists. […] In contrast, a palmitoyl variant of Pro^3GIP(3–30) ... || It has been shown that rat and the human GIP(3-30)NH2 are effective antagonists in vivo [48, 49], so we would expect the mouse GIP(3-30)NH2 to behave in a similar manner. […] In humans GIP-induced insulin secretion was reduced by 82% during co-infusion with GIP(3-30)NH2 [48].

Starred links: 1 amine or outer side, 2 acyl side, 3 side chain; linkers in the order of their positions; H or OH if unused. Residues, ends and D or L forms follow the SMILES beside them. Groups on a side chain read outwards from the residue. No end group written: not given here. *: point of attachment. γGlu = O=C(O)[C@H](CCC(=O)[*:2])N[*:1]; Palmitoyl = CCCCCCCCCCCCCCCC(=O)*

With `CC[C@H](C)[C@H](NC(=O)[C@H](CO)NC(=O)[C@H](Cc1ccc(O)cc1)NC(=O)[C@H](CC(=O)O)NC(=O)[C@H](CO)NC(=O)[C@@H](NC(=O)[C@H](Cc1ccccc1)NC(=O)[C@@H](NC(=O)CNC(=O)[C@@H](N)CCC(=O)O)[C@@H](C)O)[C@@H](C)CC)C(=O)N[C@@H](C)C(=O)N[C@@H](CCSC)C(=O)N[C@@H](CC(=O)O)C(=O)N[C@@H](CCCCN)C(=O)N[C@H](C(=O)N[C@@H](CCCNC(=N)N)C(=O)N[C@@H](CCC(N)=O)C(=O)N[C@@H](CCC(N)=O)C(=O)N[C@@H](CC(=O)O)C(=O)N[C@@H](Cc1ccccc1)C(=O)N[C@H](C(=O)N[C@@H](CC(N)=O)C(=O)N[C@@H](Cc1c[nH]c2ccccc12)C(=O)N[C@@H](CC(C)C)C(=O)N[C@@H](CC(C)C)C(=O)N[C@@H](C)C(=O)N[C@@H](CCC(N)=O)C(=O)N[C@@H](CCCNC(=N)N)C(N)=O)C(C)C)[C@@H](C)CC` [GIPA-1, mouse GIP(3–30)NH2], the IC50 in data set [1] turned out to be 483 nM. For the compound `CCCCCCCCCCCCCCCC(=O)N[C@@H](CCC(=O)N[C@@H](CCC(=O)NCCCC[C@H](NC(=O)[C@H](CC(=O)O)NC(=O)[C@H](CO)NC(=O)[C@@H](NC(=O)[C@H](Cc1ccccc1)NC(=O)[C@@H](NC(C)=O)[C@@H](C)O)[C@@H](C)CC)C(=O)N[C@@H](CO)C(=O)N[C@H](C(=O)N[C@@H](C)C(=O)N[C@@H](CCSC)C(=O)N[C@@H](CC(=O)O)C(=O)N[C@@H](CCCCN)C(=O)N[C@H](C(=O)N[C@@H](CCCNC(=N)N)C(=O)N[C@@H](CCC(N)=O)C(=O)N[C@@H](CCC(N)=O)C(=O)N[C@@H](CC(=O)O)C(=O)N[C@@H](Cc1ccccc1)C(=O)N[C@H](C(=O)N[C@@H](CC(N)=O)C(=O)N[C@@H](Cc1c[nH]c2ccccc12)C(=O)N[C@@H](CC(C)C)C(=O)N[C@@H](CC(C)C)C(=O)N[C@@H](C)C(=O)N[C@@H](CCC(N)=O)C(=O)N[C@@H](CCCCN)C(=O)NCC(=O)N[C@@H](CCCCN)C(=O)N[C@@H](CCCCN)C(=O)N[C@@H](CC(N)=O)C(=O)N[C@@H](CC(=O)O)C(=O)N[C@@H](Cc1c[nH]c2ccccc12)C(=O)N[C@@H](CCCCN)C(=O)N[C@@H](Cc1c[nH]cn1)C(=O)N[C@@H](CC(N)=O)C(=O)N[C@H](C(=O)N[C@H](C(=O)N[C@@H](CCC(N)=O)C(=O)O)[C@@H](C)O)[C@@H](C)CC)C(C)C)[C@@H](C)CC)[C@@H](C)CC)C(=O)O)C(=O)O` [GIPA-2, N^αAc-K10[γEγE-C16]-Arg18-hGIP(5–42)] (Ac-TFISDK([γGlu-γGlu-Palmitoyl])SIAMDKIRQQDFVNWLLAQKGKKNDWKHNITQ-OH), the IC50 in data set [1] came out at 2.97 nM. Further, the “plasma half-life and in vivo duration of action” value in data set [2] was “extended plasma half-life”. “(Pro3)-GIP: GIPR antagonist subsequently found to also possess partial agonist properties (YAPGTFISDYSIAMDKIHQQDFVNWLLAQKGKKNDWKHNITQ; Gastric inhibitory polypeptide; UniProt P09681 52-93, looked up, variant E3P)”: in data set [3], the GIPR agonist/antagonist character result is reported as “originally characterized as an antagonist but was subsequently found to also possess partial agonist properties”. Turning to “GIP(3–30)NH2: N-terminally truncated form of GIP, potent peptide-based antagonist; species not stated (EGTFISDYSIAMDKIHQQDFVNWLLAQK-NH2; UniProt P09681 54-81, looked up, fragment)”, the GIPR antagonist potency entry in data set [3] is “potent peptide-based antagonist”.

As for “human GIP(3-30)NH2: the human peptide sequence of GIP(3-30)NH2 (EGTFISDYSIAMDKIHQQDFVNWLLAQK-NH2; UniProt P09681 54-81, looked up, fragment)”, the “reduction of GIP-induced insulin secretion” value in data set [4] is recorded as 82%. Besides, in data set [2] (human peptide sequence, in humans), the plasma elimination half-life was 7.7 ± 1.4 min. In the case of “mouse GIP: Mouse GIP was sourced from Phoenix Pharmaceuticals (YAEGTFISDYSIAMDKIRQQDFVNWLLAQRGKKSDWKHNITQ; Gastric inhibitory polypeptide; UniProt P48756 44-85, looked up)”, in data set [5] (5 mg/kg GIPA-2 SC 60 min and/or 0.1 mg/kg mouse GIP SC 15 min before ip glucose 1.5 g/kg), the “glucose tolerance (IPGTT)” value is listed as “significantly improved glucose tolerance”. The plasma insulin entry in data set [5] (15 and 240 min timepoints) is “This effect was not observed”; in data set [5] (15 minutes after mouse GIP, just prior to glucose bolus (0 min), 5 mg/kg GIPA-2 SC), “robust increase in plasma insulin”. As for “rat GIP(3–30)NH2: GIPR antagonist, rat GIP(3–30)NH2”, the “body weight, fat mass, triglycerides, LPL, leptin” value in data set [6] (sub-chronic dosing, rats fed normal chow) was “significantly increased body weight, body fat mass, triglycerides, LPL, and leptin levels”. For the same compound, in data set [6] (subchronic treatment), the “food intake or bone resorption” value was “did not modify food intake or bone resorption”.
